This assay addresses T1, human IL-17A (Homo sapiens, UniProt Q16552).
T1 construct: host or cells: added to BJ human fibroblasts (ATCC CRL2522)
The assay is described as follows: BJ human fibroblast cell assay, IL-17A stimulated GRO-α production. The format is cell-based. As to conditions: BJ human fibroblast cells, 1 ng/ml human IL-17A. The text has this: For inhibitor screen, human BJ fibroblast cells (ATCC CRL2522) (American Type Culture Collection, VA) were used. For mouse cell based assay MLE-12 mouse epithelial cells (ATCC CRL2110) were used. Both cell lines were maintained in ATCC recommended media.

*1 amine or outer side, *2 acyl side, *3 side chain or, on linkers, in order; H or OH if unused. Where a SMILES comes first, the peptide text is derived from it. Bridges are numbered along the chain shown (N, C = ends). Roman numbers before positions name the chains, in order. [ ]: non-standard residue; d: D form. X1 = O=C(CCOCCOCCOCCOCCOCCOCCOCCOCCOCCOCCOCCOCCOCCOCCOCCOCCOCCOCCOCCOCCOCCC(=O)[*:2])[*:1]; CO(CH2CH2O)5CH2CH2CO = O=C(CCOCCOCCOCCOCCOCCC(=O)[*:2])[*:1]; Lys(Me2) = CN(C)CCCC[C@H](N)C(=O)O

T1 sequence (Q16552 24-155): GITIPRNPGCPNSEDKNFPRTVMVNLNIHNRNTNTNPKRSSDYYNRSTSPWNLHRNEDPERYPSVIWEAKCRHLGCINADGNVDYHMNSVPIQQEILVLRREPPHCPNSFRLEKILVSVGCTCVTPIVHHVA

What is called IC50 is the midpoint of a concentration-inhibition curve. A high value points to weaker potency in that assay. In turn, `CC[C@H](C)[C@H](NC(=O)CCOCCOCCOCCOCCOCCOCCOCCOCCOCCOCCOCCOCCOCCOCCOCCOCCOCCOCCOCCOCCOCCC(=O)N[C@H](C(=O)N[C@H](C(=O)N[C@H](C(=O)N[C@H](C(=O)N[C@H](C(=O)N1CCC[C@H]1C(=O)N[C@@H](C)C(=O)N[C@@H](CC(=O)O)C(=O)N[C@@H](CC(C)C)C(=O)N[C@@H](Cc1c[nH]c2ccccc12)C(=O)N[C@@H](CC(=O)O)C(=O)N[C@@H](Cc1c[nH]c2ccccc12)C(=O)N[C@H](C(=O)N[C@@H](CC(N)=O)C(=O)N[C@@H](CCCCN(C)C)C(N)=O)[C@@H](C)CC)[C@@H](C)CC)[C@@H](C)O)C(C)C)[C@@H](C)O)[C@@H](C)CC)C(=O)N[C@H](C(=O)N[C@H](C(=O)N[C@H](C(=O)N[C@H](C(=O)N1CCC[C@H]1C(=O)N[C@@H](C)C(=O)N[C@@H](CC(=O)O)C(=O)N[C@@H](CC(C)C)C(=O)N[C@@H](Cc1c[nH]c2ccccc12)C(=O)N[C@@H](CC(=O)O)C(=O)N[C@@H](Cc1c[nH]c2ccccc12)C(=O)N[C@H](C(=O)N[C@@H](CC(N)=O)C(=O)N[C@@H](CCCCN(C)C)C(N)=O)[C@@H](C)CC)[C@@H](C)CC)[C@@H](C)O)C(C)C)[C@@H](C)O` [Compound 39] (I: ITVTIPADLWDWIN[Lys(Me2)]-NH2 / II: ITVTIPADLWDWIN[Lys(Me2)]-NH2; linker I:N-II:N via X1) yielded an IC50 of 0.74 nM.

Take `CC[C@H](C)[C@H](NC(C)=O)C(=O)N[C@H](C(=O)N[C@H](C(=O)N[C@@H](CCCCNC(=O)CCOCCOCCOCCOCCOCCOCCOCCOCCOCCOCCOCCOCCOCCOCCOCCOCCOCCOCCOCCOCCOCCC(=O)NCCCC[C@H](NC(=O)[C@@H](NC(=O)[C@@H](NC(=O)[C@@H](NC(C)=O)[C@@H](C)CC)[C@@H](C)O)C(C)C)C(=O)N[C@H](C(=O)N1CCC[C@H]1C(=O)N[C@@H](C)C(=O)N[C@@H](CC(=O)O)C(=O)N[C@@H](CC(C)C)C(=O)N[C@@H](Cc1c[nH]c2ccccc12)C(=O)N[C@@H](CC(=O)O)C(=O)N[C@@H](Cc1c[nH]c2ccccc12)C(=O)N[C@H](C(=O)N[C@@H](CC(N)=O)C(=O)N[C@@H](CCCCN(C)C)C(N)=O)[C@@H](C)CC)[C@@H](C)CC)C(=O)N[C@H](C(=O)N1CCC[C@H]1C(=O)N[C@@H](C)C(=O)N[C@@H](CC(=O)O)C(=O)N[C@@H](CC(C)C)C(=O)N[C@@H](Cc1c[nH]c2ccccc12)C(=O)N[C@@H](CC(=O)O)C(=O)N[C@@H](Cc1c[nH]c2ccccc12)C(=O)N[C@H](C(=O)N[C@@H](CC(N)=O)C(=O)N[C@@H](CCCCN(C)C)C(N)=O)[C@@H](C)CC)[C@@H](C)CC)C(C)C)[C@@H](C)O` [Compound 41] (I: Ac-ITVKIPADLWDWIN[Lys(Me2)]-NH2 / II: Ac-ITVKIPADLWDWIN[Lys(Me2)]-NH2; linker I:4-II:4 via X1): 15 nM corresponded to half-maximal inhibition (IC50).

Take `CC[C@H](C)[C@H](NC(C)=O)C(=O)N[C@H](C(=O)N[C@H](C(=O)N[C@H](C(=O)N[C@H](C(=O)N1CCC[C@H]1C(=O)N[C@@H](CCCCNC(=O)CCOCCOCCOCCOCCOCCC(=O)NCCCC[C@H](NC(=O)[C@@H]1CCCN1C(=O)[C@@H](NC(=O)[C@@H](NC(=O)[C@@H](NC(=O)[C@@H](NC(=O)[C@@H](NC(C)=O)[C@@H](C)CC)[C@@H](C)O)C(C)C)[C@@H](C)O)[C@@H](C)CC)C(=O)N[C@@H](CC(=O)O)C(=O)N[C@@H](CC(C)C)C(=O)N[C@@H](Cc1c[nH]c2ccccc12)C(=O)N[C@@H](CC(=O)O)C(=O)N[C@@H](Cc1c[nH]c2ccccc12)C(=O)N[C@H](C(=O)N[C@@H](CC(N)=O)C(=O)N[C@@H](CCCCN(C)C)C(N)=O)[C@@H](C)CC)C(=O)N[C@@H](CC(=O)O)C(=O)N[C@@H](CC(C)C)C(=O)N[C@@H](Cc1c[nH]c2ccccc12)C(=O)N[C@@H](CC(=O)O)C(=O)N[C@@H](Cc1c[nH]c2ccccc12)C(=O)N[C@H](C(=O)N[C@@H](CC(N)=O)C(=O)N[C@@H](CCCCN(C)C)C(N)=O)[C@@H](C)CC)[C@@H](C)CC)[C@@H](C)O)C(C)C)[C@@H](C)O` [Compound 42] (I: Ac-ITVTIPKDLWDWIN[Lys(Me2)]-NH2 / II: Ac-ITVTIPKDLWDWIN[Lys(Me2)]-NH2; linker I:7-II:7 via CO(CH2CH2O)5CH2CH2CO): the IC50 was found to be 24 nM.

`CC[C@H](C)[C@H](NC(C)=O)C(=O)N[C@H](C(=O)N[C@H](C(=O)N[C@H](C(=O)N[C@H](C(=O)N1CCC[C@H]1C(=O)N[C@@H](C)C(=O)N[C@@H](CC(=O)O)C(=O)N[C@@H](CC(C)C)C(=O)N[C@@H](Cc1c[nH]c2ccccc12)C(=O)N[C@@H](CC(=O)O)C(=O)N[C@@H](Cc1c[nH]c2ccccc12)C(=O)N[C@H](C(=O)N[C@@H](CC(N)=O)C(=O)N[C@@H](CCCCN(C)C)C(=O)N[C@@H](CCCCNC(=O)CCOCCOCCOCCOCCOCCOCCOCCOCCOCCOCCOCCOCCOCCOCCOCCOCCOCCOCCOCCOCCOCCC(=O)NCCCC[C@H](NC(=O)[C@H](CCCCN(C)C)NC(=O)[C@H](CC(N)=O)NC(=O)[C@@H](NC(=O)[C@H](Cc1c[nH]c2ccccc12)NC(=O)[C@H](CC(=O)O)NC(=O)[C@H](Cc1c[nH]c2ccccc12)NC(=O)[C@H](CC(C)C)NC(=O)[C@H](CC(=O)O)NC(=O)[C@H](C)NC(=O)[C@@H]1CCCN1C(=O)[C@@H](NC(=O)[C@@H](NC(=O)[C@@H](NC(=O)[C@@H](NC(=O)[C@@H](NC(C)=O)[C@@H](C)CC)[C@@H](C)O)C(C)C)[C@@H](C)O)[C@@H](C)CC)[C@@H](C)CC)C(N)=O)C(N)=O)[C@@H](C)CC)[C@@H](C)CC)[C@@H](C)O)C(C)C)[C@@H](C)O` [Compound 47] (I: Ac-ITVTIPADLWDWIN[Lys(Me2)]K-NH2 / II: Ac-ITVTIPADLWDWIN[Lys(Me2)]K-NH2; linker I:16-II:16 via X1) registered an IC50 of 16 nM.

As for `CC[C@H](C)[C@H](NC(C)=O)C(=O)N[C@H](C(=O)N[C@H](C(=O)N[C@H](C(=O)N[C@H](C(=O)N1CCC[C@H]1C(=O)N[C@@H](C)C(=O)N[C@@H](CC(=O)O)C(=O)N[C@@H](CC(C)C)C(=O)N[C@@H](Cc1c[nH]c2ccccc12)C(=O)N[C@@H](CC(=O)O)C(=O)N[C@@H](Cc1c[nH]c2ccccc12)C(=O)N[C@H](C(=O)N[C@@H](CC(N)=O)C(=O)N[C@@H](CCCCN(C)C)C(=O)N[C@@H](CCCCNC(=O)CCOCCOCCOCCOCCOCCC(=O)NCCCC[C@H](NC(=O)[C@H](CCCCN(C)C)NC(=O)[C@H](CC(N)=O)NC(=O)[C@@H](NC(=O)[C@H](Cc1c[nH]c2ccccc12)NC(=O)[C@H](CC(=O)O)NC(=O)[C@H](Cc1c[nH]c2ccccc12)NC(=O)[C@H](CC(C)C)NC(=O)[C@H](CC(=O)O)NC(=O)[C@H](C)NC(=O)[C@@H]1CCCN1C(=O)[C@@H](NC(=O)[C@@H](NC(=O)[C@@H](NC(=O)[C@@H](NC(=O)[C@@H](NC(C)=O)[C@@H](C)CC)[C@@H](C)O)C(C)C)[C@@H](C)O)[C@@H](C)CC)[C@@H](C)CC)C(N)=O)C(N)=O)[C@@H](C)CC)[C@@H](C)CC)[C@@H](C)O)C(C)C)[C@@H](C)O` [Compound 46] (I: Ac-ITVTIPADLWDWIN[Lys(Me2)]K-NH2 / II: Ac-ITVTIPADLWDWIN[Lys(Me2)]K-NH2; linker I:16-II:16 via CO(CH2CH2O)5CH2CH2CO), the midpoint of inhibition, the IC50, lay at 582 nM.

Compound Ac-IHVTIPADLWDWI-NH2 [Compound 36] gave an IC50 of 183 nM.
